pEC50, pIC50: −log10 of the molar value.
Assays:
P2Y purinoceptor 2 [1] = molecular target: T1, P2Y purinoceptor 2 (Homo sapiens, UniProt P41231); test: The compound was evaluated for antagonistic activity against P2Y purinoceptor 2 (P2Y2); assay type: functional
[2] = The compound was evaluated for antagonist activity against P2X purinoceptor; assay type: functional
P2Y purinoceptor 1 = P2Y purinoceptor 1 (Meleagris gallopavo, UniProt P49652); test: Evaluated for agonist activity against phospholipase C coupled P2Y purinoceptor 1 (P2Y1) of turkey erythrocytes; assay type: functional
P2X purinoceptor 2 [3] = molecular target: T2, P2X purinoceptor 2 (Rattus norvegicus, UniProt P49653); test: The compound was evaluated for antagonist activity against recombinant rat receptor P2X purinoceptor 2 (P2X2) at 10 uM, expressed in Xenopus oocytes; assay type: functional, cell-based, Oocyte
T2 sequence (P49653 whole entry): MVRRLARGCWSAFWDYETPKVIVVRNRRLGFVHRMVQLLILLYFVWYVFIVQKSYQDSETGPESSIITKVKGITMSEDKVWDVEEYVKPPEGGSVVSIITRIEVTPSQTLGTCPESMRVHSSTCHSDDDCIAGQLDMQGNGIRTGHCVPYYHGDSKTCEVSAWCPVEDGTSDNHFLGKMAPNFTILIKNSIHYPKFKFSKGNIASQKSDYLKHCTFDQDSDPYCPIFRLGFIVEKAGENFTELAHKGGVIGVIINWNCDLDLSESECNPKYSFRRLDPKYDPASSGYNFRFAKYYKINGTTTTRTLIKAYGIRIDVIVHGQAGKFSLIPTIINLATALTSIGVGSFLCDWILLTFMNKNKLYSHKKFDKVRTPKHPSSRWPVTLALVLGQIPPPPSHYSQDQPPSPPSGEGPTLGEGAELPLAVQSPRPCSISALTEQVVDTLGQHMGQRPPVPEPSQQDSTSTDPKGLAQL

P2X purinoceptor 4 [4] = molecular target: T3, P2X purinoceptor 4 (Homo sapiens, UniProt Q99571); test: Antagonist activity against recombinant human P2X purinoceptor 4 (P2X4); assay type: functional
T3 sequence (Q99571 whole entry): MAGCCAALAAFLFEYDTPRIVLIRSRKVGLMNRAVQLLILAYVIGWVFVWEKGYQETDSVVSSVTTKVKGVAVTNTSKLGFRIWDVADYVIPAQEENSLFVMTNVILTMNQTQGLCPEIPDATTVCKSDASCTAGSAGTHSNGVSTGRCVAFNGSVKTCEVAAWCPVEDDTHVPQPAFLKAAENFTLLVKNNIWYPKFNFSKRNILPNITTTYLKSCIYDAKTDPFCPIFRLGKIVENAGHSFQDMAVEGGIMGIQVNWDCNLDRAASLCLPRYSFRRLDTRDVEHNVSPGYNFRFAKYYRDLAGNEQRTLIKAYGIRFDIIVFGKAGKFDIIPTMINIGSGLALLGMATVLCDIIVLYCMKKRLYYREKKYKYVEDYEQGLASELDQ

P2X purinoceptor 4 [5] = molecular target: T4, P2X purinoceptor 4 (Rattus norvegicus, UniProt P51577); test: Antagonist activity against recombinant rat P2X purinoceptor 4 (P2X4) at 30 uM, expressed in Xenopus oocytes; assay type: functional, cell-based, Oocyte
T4 sequence (P51577 whole entry): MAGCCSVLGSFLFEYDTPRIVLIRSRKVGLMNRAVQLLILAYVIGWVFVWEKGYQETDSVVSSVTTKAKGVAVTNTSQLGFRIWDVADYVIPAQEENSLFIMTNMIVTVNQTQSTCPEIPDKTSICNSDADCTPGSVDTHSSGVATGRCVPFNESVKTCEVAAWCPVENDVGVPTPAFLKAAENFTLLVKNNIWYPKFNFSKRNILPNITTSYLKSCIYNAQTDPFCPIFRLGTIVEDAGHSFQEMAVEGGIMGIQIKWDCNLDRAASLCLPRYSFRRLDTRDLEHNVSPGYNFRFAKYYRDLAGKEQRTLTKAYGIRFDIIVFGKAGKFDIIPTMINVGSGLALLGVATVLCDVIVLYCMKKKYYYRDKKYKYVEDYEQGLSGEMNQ

P2X purinoceptor 5 = molecular target: T5, P2X purinoceptor 5 (Rattus norvegicus, UniProt P51578); test: Antagonist activity against recombinant rat P2X purinoceptor 5 (P2X5); assay type: functional
T5 sequence (P51578 whole entry): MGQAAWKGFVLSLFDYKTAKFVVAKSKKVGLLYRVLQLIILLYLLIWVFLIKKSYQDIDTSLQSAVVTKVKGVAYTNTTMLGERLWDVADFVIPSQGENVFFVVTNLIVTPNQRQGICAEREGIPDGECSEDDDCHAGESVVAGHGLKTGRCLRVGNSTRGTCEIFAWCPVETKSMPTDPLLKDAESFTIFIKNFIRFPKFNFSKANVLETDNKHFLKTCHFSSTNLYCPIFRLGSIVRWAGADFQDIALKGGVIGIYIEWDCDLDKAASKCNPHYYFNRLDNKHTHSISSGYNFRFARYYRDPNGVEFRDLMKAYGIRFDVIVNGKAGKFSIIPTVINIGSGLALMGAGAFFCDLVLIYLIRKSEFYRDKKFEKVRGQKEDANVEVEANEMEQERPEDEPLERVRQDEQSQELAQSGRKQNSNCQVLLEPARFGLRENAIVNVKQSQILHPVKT

P2X purinoceptor 6 = P2X purinoceptor 6 (Rattus norvegicus, UniProt P51579); test: Antagonist activity against recombinant rat P2X purinoceptor 6 (P2X6 ); assay type: functional
P2X purinoceptor 2 [6] = molecular target: T2, P2X purinoceptor 2; test: Antagonist activity against recombinant rat receptor P2X purinoceptor 2 (P2X2) at 10 uM, expressed in Xenopus oocytes; assay type: functional, cell-based, Oocyte
P2Y purinoceptor 2 [7] = molecular target: T1, P2Y purinoceptor 2; test: Evaluated for agonist activity against phospholipase C coupled recombinant human P2Y purinoceptor 2 (P2Y2); assay type: functional
P2X purinoceptor 3 = molecular target: T6, P2X purinoceptor 3 (Homo sapiens, UniProt P56373); test: Antagonist activity against recombinant human P2X purinoceptor 3 (P2X3 ); assay type: functional
T6 sequence (P56373 whole entry): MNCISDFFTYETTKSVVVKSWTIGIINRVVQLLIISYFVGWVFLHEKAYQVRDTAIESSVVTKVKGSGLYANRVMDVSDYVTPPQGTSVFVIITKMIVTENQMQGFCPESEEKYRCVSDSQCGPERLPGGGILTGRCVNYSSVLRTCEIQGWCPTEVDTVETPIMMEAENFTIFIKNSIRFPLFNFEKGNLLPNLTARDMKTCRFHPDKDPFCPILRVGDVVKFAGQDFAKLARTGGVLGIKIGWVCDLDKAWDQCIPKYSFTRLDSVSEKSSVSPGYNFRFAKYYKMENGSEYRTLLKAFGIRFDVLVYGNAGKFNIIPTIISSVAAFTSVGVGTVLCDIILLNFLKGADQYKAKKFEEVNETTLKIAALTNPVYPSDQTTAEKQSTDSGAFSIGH

P2X purinoceptor 7 = molecular target: T7, P2X purinoceptor 7 (Homo sapiens, UniProt Q99572); test: Antagonist activity against recombinant human P2X purinoceptor 7 (P2X7); assay type: functional
T7 sequence (Q99572 whole entry): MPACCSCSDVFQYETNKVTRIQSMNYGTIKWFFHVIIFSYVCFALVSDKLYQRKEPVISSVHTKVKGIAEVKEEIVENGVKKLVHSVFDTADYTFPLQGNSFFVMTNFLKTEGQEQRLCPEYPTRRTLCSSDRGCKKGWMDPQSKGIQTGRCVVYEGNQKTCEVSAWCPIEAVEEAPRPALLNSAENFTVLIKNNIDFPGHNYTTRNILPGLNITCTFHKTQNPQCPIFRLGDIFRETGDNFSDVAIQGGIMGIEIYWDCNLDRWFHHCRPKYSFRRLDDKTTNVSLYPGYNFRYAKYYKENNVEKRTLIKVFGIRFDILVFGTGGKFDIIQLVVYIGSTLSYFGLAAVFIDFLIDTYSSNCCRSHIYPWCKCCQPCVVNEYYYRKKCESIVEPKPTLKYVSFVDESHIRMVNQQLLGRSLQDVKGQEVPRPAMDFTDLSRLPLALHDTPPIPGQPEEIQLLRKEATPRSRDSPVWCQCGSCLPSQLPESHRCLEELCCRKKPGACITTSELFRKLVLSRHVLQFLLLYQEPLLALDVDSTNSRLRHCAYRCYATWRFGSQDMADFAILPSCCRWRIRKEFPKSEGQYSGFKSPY

P2Y purinoceptor 12 = P2Y purinoceptor 12 (Rattus norvegicus, UniProt Q9EPX4); test: Antagonist activity against phospholipase C coupled rat P2Y purinoceptor 12 (P2Y12); assay type: functional
P2Y purinoceptor 4 [8] = molecular target: P2Y purinoceptor 4 (Homo sapiens, UniProt P51582); test: The compound was evaluated for antagonist activity against phospholipase C coupled recombinant human P2Y purinoceptor 4 (P2Y4); assay type: functional
P2Y purinoceptor 4 [9] = molecular target: P2Y purinoceptor 4 (Rattus norvegicus, UniProt O35811); test: The compound was evaluated for agonist activity against phospholipase C coupled recombinant rat P2Y purinoceptor 4 (P2Y4); assay type: functional
P2Y purinoceptor 6 = P2Y purinoceptor 6 (Homo sapiens, UniProt Q15077); test: The compound was evaluated for agonist activity against phospholipase C coupled recombinant human P2Y purinoceptor 6 (P2Y6); assay type: functional
P2X purinoceptor 1 = molecular target: T8, P2X purinoceptor 1 (Homo sapiens, UniProt P51575); test: Antagonist activity against recombinant human P2X purinoceptor 1 (P2X1 ); assay type: functional
T8 sequence (P51575 whole entry): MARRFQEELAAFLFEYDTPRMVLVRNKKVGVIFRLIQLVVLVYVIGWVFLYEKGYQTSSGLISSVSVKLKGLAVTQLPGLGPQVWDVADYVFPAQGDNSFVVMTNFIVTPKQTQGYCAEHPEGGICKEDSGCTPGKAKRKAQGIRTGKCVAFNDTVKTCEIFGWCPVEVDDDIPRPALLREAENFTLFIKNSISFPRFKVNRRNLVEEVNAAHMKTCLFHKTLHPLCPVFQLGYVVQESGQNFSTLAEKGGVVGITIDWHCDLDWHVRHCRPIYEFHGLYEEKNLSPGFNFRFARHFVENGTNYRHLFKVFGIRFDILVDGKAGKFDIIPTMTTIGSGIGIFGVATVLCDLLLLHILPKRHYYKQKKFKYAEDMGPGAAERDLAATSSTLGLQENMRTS

T1 sequence (P41231 whole entry): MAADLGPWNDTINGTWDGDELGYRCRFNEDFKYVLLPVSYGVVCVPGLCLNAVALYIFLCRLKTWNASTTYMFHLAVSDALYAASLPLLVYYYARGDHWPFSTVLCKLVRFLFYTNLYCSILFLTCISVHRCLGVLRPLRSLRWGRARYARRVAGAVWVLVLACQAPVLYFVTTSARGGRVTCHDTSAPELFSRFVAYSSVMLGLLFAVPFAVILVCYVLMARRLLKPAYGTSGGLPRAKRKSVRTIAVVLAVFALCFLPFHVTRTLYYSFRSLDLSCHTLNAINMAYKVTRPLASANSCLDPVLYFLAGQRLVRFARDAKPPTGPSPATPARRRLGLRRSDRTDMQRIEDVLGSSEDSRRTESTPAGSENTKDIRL
Chain of P2Y purinoceptor 4 (Rattus norvegicus, UniProt O35811) (O35811 whole entry): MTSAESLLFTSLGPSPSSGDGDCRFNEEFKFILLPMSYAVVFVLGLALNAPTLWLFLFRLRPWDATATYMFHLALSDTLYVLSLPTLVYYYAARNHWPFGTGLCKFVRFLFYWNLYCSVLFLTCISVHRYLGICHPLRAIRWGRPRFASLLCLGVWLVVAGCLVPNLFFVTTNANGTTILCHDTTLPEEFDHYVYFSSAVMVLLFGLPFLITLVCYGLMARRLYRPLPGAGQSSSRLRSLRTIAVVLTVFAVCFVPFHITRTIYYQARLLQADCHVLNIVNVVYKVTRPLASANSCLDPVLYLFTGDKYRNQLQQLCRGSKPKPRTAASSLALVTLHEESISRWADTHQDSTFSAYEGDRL
Chain of P2Y purinoceptor 6 (Q15077 whole entry): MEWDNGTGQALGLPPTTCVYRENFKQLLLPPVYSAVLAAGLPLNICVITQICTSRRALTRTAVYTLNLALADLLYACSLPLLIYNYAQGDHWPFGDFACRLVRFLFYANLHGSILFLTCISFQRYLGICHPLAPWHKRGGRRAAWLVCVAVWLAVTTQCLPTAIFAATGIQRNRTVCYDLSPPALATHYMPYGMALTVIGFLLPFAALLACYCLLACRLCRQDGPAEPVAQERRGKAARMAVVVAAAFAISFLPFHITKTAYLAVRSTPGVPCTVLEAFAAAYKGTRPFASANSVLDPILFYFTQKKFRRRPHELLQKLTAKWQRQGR
Chain of P2Y purinoceptor 4 (Homo sapiens, UniProt P51582) (P51582 whole entry): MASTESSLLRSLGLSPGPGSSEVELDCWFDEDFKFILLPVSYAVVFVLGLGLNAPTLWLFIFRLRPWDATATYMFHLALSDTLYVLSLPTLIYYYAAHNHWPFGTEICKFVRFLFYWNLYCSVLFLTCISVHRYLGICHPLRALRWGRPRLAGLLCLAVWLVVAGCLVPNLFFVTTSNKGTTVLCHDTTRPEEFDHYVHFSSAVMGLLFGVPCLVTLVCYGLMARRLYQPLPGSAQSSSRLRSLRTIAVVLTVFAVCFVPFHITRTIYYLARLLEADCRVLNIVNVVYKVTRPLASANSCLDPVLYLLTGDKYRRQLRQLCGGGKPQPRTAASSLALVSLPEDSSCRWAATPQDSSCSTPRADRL
Chain of P2X purinoceptor 6 (P51579 whole entry): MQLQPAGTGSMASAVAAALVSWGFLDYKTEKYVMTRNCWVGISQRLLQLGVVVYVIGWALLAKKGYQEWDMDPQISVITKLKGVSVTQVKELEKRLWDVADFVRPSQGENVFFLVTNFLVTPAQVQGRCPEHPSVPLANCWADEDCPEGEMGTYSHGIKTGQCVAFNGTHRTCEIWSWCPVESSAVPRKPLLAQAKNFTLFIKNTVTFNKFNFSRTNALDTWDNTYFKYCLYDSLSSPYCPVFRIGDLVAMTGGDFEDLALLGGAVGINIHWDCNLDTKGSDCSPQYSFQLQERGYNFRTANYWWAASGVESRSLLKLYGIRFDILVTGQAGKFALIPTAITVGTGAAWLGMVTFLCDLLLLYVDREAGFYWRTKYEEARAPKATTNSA
Chain of P2Y purinoceptor 1 (P49652 whole entry): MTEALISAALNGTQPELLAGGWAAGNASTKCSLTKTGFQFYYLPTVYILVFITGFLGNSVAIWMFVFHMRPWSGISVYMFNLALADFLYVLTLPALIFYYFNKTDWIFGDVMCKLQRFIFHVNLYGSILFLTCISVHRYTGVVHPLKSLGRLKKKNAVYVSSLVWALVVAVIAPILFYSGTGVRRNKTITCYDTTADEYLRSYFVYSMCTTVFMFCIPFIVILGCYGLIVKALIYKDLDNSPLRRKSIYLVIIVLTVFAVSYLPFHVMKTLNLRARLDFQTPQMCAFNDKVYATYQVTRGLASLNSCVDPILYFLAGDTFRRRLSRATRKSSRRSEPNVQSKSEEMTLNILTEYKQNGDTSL
Chain of P2Y purinoceptor 12 (Q9EPX4 whole entry): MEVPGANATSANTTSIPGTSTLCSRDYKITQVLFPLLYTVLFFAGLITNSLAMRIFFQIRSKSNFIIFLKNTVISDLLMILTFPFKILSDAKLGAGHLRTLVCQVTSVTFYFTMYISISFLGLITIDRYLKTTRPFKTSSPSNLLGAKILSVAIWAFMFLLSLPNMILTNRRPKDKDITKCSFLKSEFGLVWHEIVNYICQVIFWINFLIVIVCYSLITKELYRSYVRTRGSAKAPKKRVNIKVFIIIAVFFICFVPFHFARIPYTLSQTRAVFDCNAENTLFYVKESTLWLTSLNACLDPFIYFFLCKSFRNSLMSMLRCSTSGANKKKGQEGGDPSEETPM

Q: With `Cc1cc(-c2ccc(/N=N/c3c(S(=O)(=O)O)cc4cc(S(=O)(=O)O)cc(N)c4c3O)c(C)c2)ccc1/N=N/c1c(S(=O)(=O)O)cc2cc(S(=O)(=O)O)cc(N)c2c1O` [TRYPAN BLUE] as the compound, how does the pIC50 (P2Y purinoceptor 2 [1]) read?
A: The pIC50 was 3.77.

Q: What about the pIC50 [2] of the same compound?
A: The pIC50 was 3.41.

Q: What does the source list for `Cc1nc(/N=N/c2cc(S(=O)(=O)O)ccc2Cl)c(COP(=O)(O)O)c(C=O)c1O`?
A: pEC50 (P2Y purinoceptor 1): 8.36; pEC50 (P2X purinoceptor 2 [3]): 8.96

Q: With `Nc1ncnc2c1ncn2[C@@H]1O[C@H](COP(=O)(O)OP(=O)(O)OP(=O)(O)O)[C@@H](O)[C@H]1O` [ADENOSINE TRIPHOSPHATE] as the compound, how does the pEC50 (P2X purinoceptor 4 [4]) read?
A: Its pEC50 is 6.30.

Q: And the pEC50 (P2X purinoceptor 4 [5])?
A: Its pEC50 is 6.00.

Q: What about the pEC50 (P2X purinoceptor 5) of the same compound?
A: Its pEC50 is 6.00.

Q: What about the pEC50 (P2X purinoceptor 6) of the same compound?
A: Its pEC50 is 6.00.

Q: What about the pEC50 (P2X purinoceptor 2 [6]) of the same compound?
A: Its pEC50 is 5.85.

Q: What about the pEC50 (P2Y purinoceptor 2 [7]) of the same compound?
A: The pEC50 was 6.64.

Q: What about the pEC50 (P2X purinoceptor 3) of the same compound?
A: Its pEC50 is 6.47.

Q: What about the pEC50 (P2X purinoceptor 7) of the same compound?
A: Its pEC50 is 3.11.

Q: And the pEC50 (P2Y purinoceptor 12)?
A: Its pEC50 is 5.50.

Q: What about the pEC50 (P2Y purinoceptor 4 [8]) of the same compound?
A: Its pEC50 is 4.37.

Q: And the pEC50 (P2Y purinoceptor 4 [9])?
A: Its pEC50 is 5.74.

Q: What about the pEC50 (P2Y purinoceptor 6) of the same compound?
A: Its pEC50 is < 4.00.

Q: What about the pEC50 (P2X purinoceptor 1) of the same compound?
A: The pEC50 was 7.25.
